Data on 5 molecules can be found in patent publication US20250171468A1, “PHENOXIDO COPPER COMPLEXES AND METHODS FOR USING THEM IN THE TREATMENT OF CANCER” (UNIVERSITY OF LOUISIANA LAFAYETTE, priority 2023, published 2025).

The structures appear in SMILES notation.

Test [1] relates to all tested cancer cell lines. The following applies: cited from earlier work.
Test [2] relates to A2780 cells. In words: Mitochondrial membrane potential analysis. The following applies: A2780, 24 h incubation, IC50 concentrations. Type of test: cell-based, human. Here is the method:
In order to get more insight about the mechanisms involved in the induction of cell death in the A2780 cells treated with the complexes 4, 6, and 7, the detection of mitochondrial membrane potential in the cells was performed by means of flow cytometric analysis using a specific kit. […] Both these agents induced the apoptosis via the intrinsic route of apoptosis activation, characterized by the efflux of cytochrome c from the damaged mitochondria to the cytoplasm of the cells, followed by the formation of […] and activation of effector caspases 3/7 leading to the destruction of cell cytoskeleton and fragmentation of DNA. […] The major suspect in this case is the induction of cuproptosis, a relatively newly discovered mechanism of cell death caused by copper, which is characterized by the high intracellular levels of copper, low levels of apoptosis, yet substantial antiproliferative effects on the target cells. […]
The cells were washed with PBS, detached by trypsin treatment, isolated by centrifugation, and resuspended in 500 iL of culture medium. […] The samples were measured in triplicates, while at least 10^4 events were recorded using BD FACSVerse flow cytometer (Becton Dickinson, USA). […]

Test [3] deals with caspases 3/7 in A2780 cells. In words: Activation of effector caspases 3/7, flow cytometry. It is filed as cell-based, human. As to conditions: A2780, 24 h incubation, IC50 concentrations. On the procedure:
To assess the participation of apoptosis on the cell death induced by the studied complexes, the activity of effector caspases 3/7 in A2780 cells incubated with the tested compounds was determined by flow cytometry. […] This unequivocally means that the cell death they induce proceeds via a mechanism independent from caspases.
(§1) Both assays were performed according to the manufacturers' protocols with one modification in caspase induction assay, which was the use of CellEvent™ Caspase-3/7 Green Detection Reagent only for detection of Caspase-3/7 activation. […] After the 24 h incubation period, cells were washed once with PBS (0.1 M, pH 7.4), detached by trypsinization (0.25% trypsin-EDTA (Gibco™), resuspended in 500 L of culture medium and divided into two separate samples. The first sample was used in the apoptosis assay and the second one was used to detect the activation of caspases 3/7 in A2780 cells. The samples were analyzed using the BD FACSVerse flow cytometer (Becton Dickinson, USA) in three separate experiments, while at least 10^4 events were recorded for each sample prepared in duplicates.
For orientation: Flow cytometry measures light scatter and fluorescence of single cells or particles in a stream.

In test [4] the test system is A2780 cells. In words: Intracellular ROS/superoxide production. It is filed as cell-based, human. The following applies: A2780, 24 h. Here is the method: The effects of the tested compounds on the ROS production in A2780 cells and on the progression of the oxidative stress caused by the known pro-oxidant agent (pyocyanin) were observed by means of flow cytometry using a specific kit of intracellular ROS, and superoxide detection, respectively. […] Approximately the same pattern was identified also in case of superoxide production (FIG. 16).
The oxidative stress analysis was performed using ROS-ID® Total ROS/Superoxide detection kit (Enzo Life Sciences, US) according to the manufacturer protocol. The samples were analyzed in triplicates on multimode microplate reader Infinite PRO M200 (Tecan, Switzerland). The control samples contained 500 iM pyocyanin.

For test [5], the system named is A2780 cells. In words: Cell cycle analysis by flow cytometry. The following applies: A2780, 24 h; 4 and 6 at 3 μM, 7 at 15 μM, cisplatin at 19 μM. Type of test: cell-based, human. On the procedure: Similar cellular effects were described for a number of copper(II) complexes previously for a number of copper(II) complexes involving various ligands [40-43.]
The A2780 cells (Sigma, 93112519-1VL) were cultivated according to the producer's instructions and seeded at the concentration of 10^4 cells/well in 96-wells. […] After 24 h, the cells were washed once with PBS (0.1 M, pH 7.4) and cell cycle analysis was performed according to the protocol based on BD Cycletest™ Plus DNA kit (Becton Dickinson, USA). Measurements were performed using BD FACSVerse flow cytometer (Becton Dickinson, USA) in three independent experiments, each done in duplicate, while at least 5×10^3 events were recorded for each sample.

Test [6] has as its system A2780 cells. In words: Cell death induction, Annexin V / propidium iodide flow cytometry. Type of test: cell-based, human. The following applies: A2780, 24 h; applied at concentration causing 50% decrease in proliferation. Here is the method:
The induction of cell death in A2780 cancer cells was monitored by flow cytometry. Three types of cells were identified by incubation with Annexin V antibody and propidium iodide (PI). The normal cells were Annexin V and PI negative.
as §1

The subject of test [7] is A2780 cells. In words: Autophagy induction, CYTO-ID kit flow cytometry. Type of test: cell-based, human. The following applies: A2780, 24 h; 4 and 6 at 3 μM, 7 at 15 μM, cisplatin at 19 μM. Here is the method: To further explore the mechanisms involved in the cellular death of A2780 cells induced by the complexes, the autophagy progression was monitored in the cells using a specific flow cytometry-based kit. The autophagy signaling caused by the incubation with the tested compounds was compared to the untreated control group of cells and positive control group, which included cells treated with the chloroquine/rapamycin (CQ/Rapamycin) mixture inducing strong autophagic response in cells. […] In fact, autophagy might have a dual role in cancer as it can help the cancer cells to overcome metabolic stress (hypoxia, lack of nutrients) and suppress tumor progression through degradation of oncogenic proteins. Many anticancer agents, including the copper(II) complexes, which mechanism of action includes different cellular processes, such as inhibition of mTORC1, proteasome inhibition, inhibition of histone deacetylases or topoisomerases, induce autophagy. On the other hand, the apoptosis is evidently a main route of cell death in the A2780 cells caused by complex 7.
The analyses were performed according to the manufacturer's protocol on A2780 cells pretreated for 24 h by the tested compounds. […] The samples were analyzed using the BD FACSVerse flow cytometer (Becton Dickinson, USA) in three separate experiments, while at least 10^4 events were recorded for each sample prepared in duplicates. […]

For the molecule `[Cu+2].[O-]c1c(I)cc(Cl)c2cccnc12.[O-]c1c(I)cc(Cl)c2cccnc12` [[Cu(CQ)2]], the “IC50 compared with cisplatin” value in test [1] is listed as “less than that of cisplatin”.
Consider `N.N.[Cl][Pt][Cl]` [Cisplatin, cisplatin, reference compound], for which the mitochondrial membrane damage entry in test [2] is “impairment of the mitochondrial membrane function/permeability”. Further, in test [3], the “activation of effector caspases 3/7” value is “significant activation”. Also, the “promotion of oxidative stress (ROS production) by the compound itself” value in test [4] (no pyocyanin pretreatment) was “none of the tested complexes 4, 6, and 7 nor cisplatin showed any significant abilities to promote the oxidative stress by themselves”. Moreover, the “effect on oxidative stress caused by pyocyanin pretreatment” value in test [4] (pretreated with pyocyanin) is reported as “only slight antioxidative effects”. The cell-cycle modification entry in test [5] is “significant arrest of cells in S phase”. The “induction of cell death (apoptosis and necrosis)” value in test [6] is reported as “most intensive induction of cell death processes”. Further, the activation of autophagy entry in test [7] is reported as “significant activation of autophagy”.
As for `On1ccccc1=S.On1ccccc1=S.[Cu]` [[Cu(Pyr)2]], the “IC50 compared with cisplatin” value in test [1] is “less than that of cisplatin”.
Take `[Cu+2].[O-]c1cccc2cccnc12.[O-]c1cccc2cccnc12` [[Cu(8-HQ)2]]: the “IC50 compared with cisplatin” value in test [1] is “less than that of cisplatin”.
For the molecule `CCN(CC)C(=S)[S-].CCN(CC)C(=S)[S-].[Cu+2]` [[Cu(DDC)2]], in test [1], the “IC50 compared with cisplatin” value is given as “less than that of cisplatin”.
